Key:
Type in all cases: in vivo
[1] = tested on: common ragweed (Ambrosia artemisiifolia L., AMBEL); test: Post-emerge greenhouse herbicide test, phytotoxicity rating; conditions: 14 days after application, scale 0-100
How it was run: (§1)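 Plants at the 2-3 leaf stage, sown 8-21 days earlier, were track-sprayed post-emergence with compound in acetone plus 0.25% v/v non-ionic surfactant at 63-1000 g ai/ha (187 l/ha). Damage was rated at 14 days on a 0-100 scale (0 none, 100 all plants dead), for both crop injury and weed control.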

[2] = tested on: Johnsongrass (Sorghum halepense, SORHA); test: Pre-emerge greenhouse herbicide test, phytotoxicity rating; conditions: 14 days after application, rating scale 0-100
How it was run: (§2)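 Seeds sown in sandy loam one day before track-sprayer application of acetone solutions at 125–1000 g ai/ha (187 l/ha), then surface-watered to incorporate and bottom-watered. Injury scored visually at 14 days on a 0–100 scale (0 no damage, 100 complete death).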

[3] = tested on: green foxtail (Setaria viridis, SETVI); test: as above; conditions: 14 days after application, rating scale 0-100
How it was run: as §2

[4] = tested on: velvetleaf (Abutilon theophrasti, ABUTH); test: as above; conditions: 14 days after application, rating scale 0-100
How it was run: as §2

[5] = tested on: large crabgrass (Digitaria sanguinalis, DIGSA); test: as above; conditions: 14 days after application, rating scale 0-100
How it was run: as §2

[6] = tested on: redroot pigweed (Amaranthus retroflexus, AMARE); test: as above; conditions: 14 days after application, rating scale 0-100
How it was run: as §2

[7] = tested on: common ragweed (Ambrosia artemisiifolia L., AMBEL); test: as above; conditions: 14 days after application, rating scale 0-100
How it was run: as §2

[8] = tested on: barnyardgrass (Echinochloa crusgalli, ECHCG); test: as above; conditions: 14 days after application, rating scale 0-100
How it was run: as §2

[9] = tested on: ivyleaf morningglory (Ipomoea hederacea, IPOHE); test: as above; conditions: 14 days after application, rating scale 0-100
How it was run: as §2

[10] = tested on: sicklepod (Cassia obtusifolia, CASOB); test: as above; conditions: 14 days after application, rating scale 0-100
How it was run: as §2

[11] = tested on: lambsquarters (Chenopodium album, CHEAL); test: as above; conditions: 14 days after application, rating scale 0-100
How it was run: as §2

[12] = tested on: field corn (Zea mays L., var. Dekalb 535, CORN); test: Post-emerge greenhouse test, crop damage rating; conditions: 14 days after application, scale 0-100
How it was run: as §1

[13] = tested on: upland rice (Oryza sp., var.Tebonnet, RICE); test: Post-emerge greenhouse test, crop damage rating; conditions: 14 days after application, scale 0-100
How it was run: as §1

[14] = tested on: field corn (Zea mays L., var. Dekalb 535, CORN); test: Pre-emerge greenhouse test, crop damage rating; conditions: 14 days after application, rating scale 0-100
How it was run: as §2

[15] = tested on: upland rice (Oryza sp., var.Tebonnet, RICE); test: Pre-emerge greenhouse test, crop damage rating; conditions: 14 days after application, rating scale 0-100
How it was run: as §2

[16] = tested on: Johnsongrass (Sorghum halepense, SORHA); test: Post-emerge greenhouse herbicide test, phytotoxicity rating; conditions: 14 days after application, scale 0-100
How it was run: as §1

[17] = tested on: green foxtail (Setaria viridis, SETVI); test: as above; conditions: 14 days after application, scale 0-100
How it was run: as §1

[18] = tested on: velvetleaf (Abutilon theophrasti, ABUTH); test: as above; conditions: 14 days after application, scale 0-100
How it was run: as §1

[19] = tested on: large crabgrass (Digitaria sanguinalis, DIGSA); test: as above; conditions: 14 days after application, scale 0-100
How it was run: as §1

[20] = tested on: redroot pigweed (Amaranthus retroflexus, AMARE); test: as above; conditions: 14 days after application, scale 0-100
How it was run: as §1

[21] = tested on: barnyardgrass (Echinochloa crusgalli, ECHCG); test: as above; conditions: 14 days after application, scale 0-100
How it was run: as §1

[22] = tested on: ivyleaf morningglory (Ipomoea hederacea, IPOHE); test: as above; conditions: 14 days after application, scale 0-100
How it was run: as §1

[23] = tested on: sicklepod (Cassia obtusifolia, CASOB); test: as above; conditions: 14 days after application, scale 0-100
How it was run: as §1

[24] = tested on: lambsquarters (Chenopodium album, CHEAL); test: as above; conditions: 14 days after application, scale 0-100
How it was run: as §1

[25] = tested on: soybean (Glycine max L., var. Pella 86, SOY); test: Post-emerge greenhouse test, crop damage rating; design: key to crop damage rating SOY: 0-100 scale: 0 = no damage, 100 = complete death of all plants; conditions: 14 days after application, scale 0-100
How it was run: as §1

[26] = tested on: soybean (Glycine max L., var. Pella 86, SOY); test: Pre-emerge greenhouse test, crop damage rating; design: key to SOY crop damage rating: 0 = no damage, 100 = complete death of all plants; conditions: 14 days after application, rating scale 0-100
How it was run: as §2

O=c1n(-c2cc(Oc3nc(F)c(F)cc3F)c(Cl)cc2F)c(=S)n2n1CCCC2 [Compound 8-28]
phytotoxicity rating AMBEL ([1]; rate 63 g ai/ha): 50
phytotoxicity rating AMBEL ([1]; rate 500 g ai/ha): 90
SORHA phytotoxicity rating ([2]; Rate 125 g al/ha): 90
SORHA phytotoxicity rating ([2]; Rate 500 g al/ha): 95
SETVI phytotoxicity rating ([3]; Rate 125 g al/ha): 100
SETVI phytotoxicity rating ([3]; Rate 500 g al/ha): 100
ABUTH phytotoxicity rating ([4]; Rate 125 g al/ha): 100
ABUTH phytotoxicity rating ([4]; Rate 500 g al/ha): 100
DIGSA phytotoxicity rating ([5]; Rate 125 g al/ha): 100
DIGSA phytotoxicity rating ([5]; Rate 500 g al/ha): 100
AMARE phytotoxicity rating ([6]; Rate 125 g al/ha): 100
AMARE phytotoxicity rating ([6]; Rate 500 g al/ha): 100
AMBEL phytotoxicity rating ([7]; Rate 125 g al/ha): 80
AMBEL phytotoxicity rating ([7]; Rate 500 g al/ha): 100
ECHCG phytotoxicity rating ([8]; Rate 125 g al/ha): 60
ECHCG phytotoxicity rating ([8]; Rate 500 g al/ha): 95
IPOHE phytotoxicity rating ([9]; Rate 125 g al/ha): 30
IPOHE phytotoxicity rating ([9]; Rate 500 g al/ha): 40
CASOB phytotoxicity rating ([10]; Rate 125 g al/ha): 100
CASOB phytotoxicity rating ([10]; Rate 500 g al/ha): 90
CHEAL phytotoxicity rating ([11]; Rate 125 g al/ha): 100
CHEAL phytotoxicity rating ([11]; Rate 500 g al/ha): 100
crop damage rating CORN ([12]; rate 63 g ai/ha): 10
crop damage rating CORN ([12]; rate 500 g ai/ha): 20
crop damage rating RICE ([13]; rate 63 g ai/ha): 10
crop damage rating RICE ([13]; rate 500 g ai/ha): 40
CORN crop damage rating ([14]; Rate 125 g al/ha): 15
CORN crop damage rating ([14]; Rate 500 g al/ha): 15
RICE crop damage rating ([15]; Rate 125 g al/ha): 25
RICE crop damage rating ([15]; Rate 500 g al/ha): 70
phytotoxicity rating SORHA ([16]; rate 63 g ai/ha): 40
phytotoxicity rating SORHA ([16]; rate 500 g ai/ha): 60
phytotoxicity rating SETVI ([17]; rate 63 g ai/ha): 30
phytotoxicity rating SETVI ([17]; rate 500 g ai/ha): 90
phytotoxicity rating ABUTH ([18]; rate 63 g ai/ha): 100
phytotoxicity rating ABUTH ([18]; rate 500 g ai/ha): 100
phytotoxicity rating DIGSA ([19]; rate 63 g ai/ha): 20
phytotoxicity rating DIGSA ([19]; rate 500 g ai/ha): 30
phytotoxicity rating AMARE ([20]; rate 63 g ai/ha): 100
phytotoxicity rating AMARE ([20]; rate 500 g ai/ha): 100
phytotoxicity rating ECHCG ([21]; rate 63 g ai/ha): 10
phytotoxicity rating ECHCG ([21]; rate 500 g ai/ha): 80
phytotoxicity rating IPOHE ([22]; rate 63 g ai/ha): 90
phytotoxicity rating IPOHE ([22]; rate 500 g ai/ha): 95
phytotoxicity rating CASOB ([23]; rate 63 g ai/ha): 50
phytotoxicity rating CASOB ([23]; rate 500 g ai/ha): 100
phytotoxicity rating CHEAL ([24]; rate 63 g ai/ha): 90
phytotoxicity rating CHEAL ([24]; rate 500 g ai/ha): 100
crop damage rating SOY ([25]; rate 63 g ai/ha): 50
crop damage rating SOY ([25]; rate 500 g ai/ha): 90
SOY crop damage rating ([26]; Rate 125 g al/ha): 10
SOY crop damage rating ([26]; Rate 500 g al/ha): 10

O=c1n(-c2cc(Oc3nccc(C(F)(F)F)n3)c(Cl)cc2F)c(=S)n2n1CCCC2 [Compound 8-30]
phytotoxicity rating AMBEL ([1]; rate 63 g ai/ha): 90
phytotoxicity rating AMBEL ([1]; rate 500 g ai/ha): 99
SORHA phytotoxicity rating ([2]; Rate 125 g al/ha): 40
SORHA phytotoxicity rating ([2]; Rate 500 g al/ha): 99
SETVI phytotoxicity rating ([3]; Rate 125 g al/ha): 100
SETVI phytotoxicity rating ([3]; Rate 500 g al/ha): 100
ABUTH phytotoxicity rating ([4]; Rate 125 g al/ha): 100
ABUTH phytotoxicity rating ([4]; Rate 500 g al/ha): 100
DIGSA phytotoxicity rating ([5]; Rate 125 g al/ha): 70
DIGSA phytotoxicity rating ([5]; Rate 500 g al/ha): 100
AMARE phytotoxicity rating ([6]; Rate 125 g al/ha): 100
AMARE phytotoxicity rating ([6]; Rate 500 g al/ha): 100
AMBEL phytotoxicity rating ([7]; Rate 125 g al/ha): 100
AMBEL phytotoxicity rating ([7]; Rate 500 g al/ha): 99
ECHCG phytotoxicity rating ([8]; Rate 125 g al/ha): 40
ECHCG phytotoxicity rating ([8]; Rate 500 g al/ha): 99
IPOHE phytotoxicity rating ([9]; Rate 125 g al/ha): 100
IPOHE phytotoxicity rating ([9]; Rate 500 g al/ha): 90
CASOB phytotoxicity rating ([10]; Rate 125 g al/ha): 100
CASOB phytotoxicity rating ([10]; Rate 500 g al/ha): 100
CHEAL phytotoxicity rating ([11]; Rate 125 g al/ha): 100
CHEAL phytotoxicity rating ([11]; Rate 500 g al/ha): 100
crop damage rating CORN ([12]; rate 63 g ai/ha): 15
crop damage rating CORN ([12]; rate 500 g ai/ha): 40
crop damage rating RICE ([13]; rate 63 g ai/ha): 5
crop damage rating RICE ([13]; rate 500 g ai/ha): 80
CORN crop damage rating ([14]; Rate 125 g al/ha): 10
CORN crop damage rating ([14]; Rate 500 g al/ha): 20
RICE crop damage rating ([15]; Rate 125 g al/ha): 20
RICE crop damage rating ([15]; Rate 500 g al/ha): 90
phytotoxicity rating SORHA ([16]; rate 63 g ai/ha): 20
phytotoxicity rating SORHA ([16]; rate 500 g ai/ha): 95
phytotoxicity rating SETVI ([17]; rate 63 g ai/ha): 60
phytotoxicity rating SETVI ([17]; rate 500 g ai/ha): 95
phytotoxicity rating ABUTH ([18]; rate 63 g ai/ha): 100
phytotoxicity rating ABUTH ([18]; rate 500 g ai/ha): 100
phytotoxicity rating DIGSA ([19]; rate 63 g ai/ha): 0
phytotoxicity rating DIGSA ([19]; rate 500 g ai/ha): 10
phytotoxicity rating AMARE ([20]; rate 63 g ai/ha): 90
phytotoxicity rating AMARE ([20]; rate 500 g ai/ha): 100
phytotoxicity rating ECHCG ([21]; rate 63 g ai/ha): 10
phytotoxicity rating ECHCG ([21]; rate 500 g ai/ha): 40
phytotoxicity rating IPOHE ([22]; rate 63 g ai/ha): 100
phytotoxicity rating IPOHE ([22]; rate 500 g ai/ha): 100
phytotoxicity rating CASOB ([23]; rate 63 g ai/ha): 100
phytotoxicity rating CASOB ([23]; rate 500 g ai/ha): 100
phytotoxicity rating CHEAL ([24]; rate 63 g ai/ha): 95
phytotoxicity rating CHEAL ([24]; rate 500 g ai/ha): 100
crop damage rating SOY ([25]; rate 63 g ai/ha): 95
crop damage rating SOY ([25]; rate 500 g ai/ha): 100
SOY crop damage rating ([26]; Rate 125 g al/ha): 80
SOY crop damage rating ([26]; Rate 500 g al/ha): 80

From US6479435B1, “Diaryl ethers and processes for their preparation and herbicidal and desiccant compositions containing them” (ISK Americas Incorporated, priority 1997, dated 2002)
